# Laboratory results as given in patent US20240417405A1, “Substituted Spiro Derivatives” (Janssen Pharmaceutica NV, priority 2021, published 2024).
# Where two headings read alike, the source gives them in different places.
# What was measured:
# [1] = target: T1, menin/MLL (terbium chelate-labeled menin, FITC-MBM1 peptide) (Homo sapiens, UniProt O00255, T541A); experiment: Menin/MLL homogenous time-resolved fluorescence (HTRF) assay; format: binding; conditions: 30 min incubation
# T1 construct: Menin (a.a 1-610-6xhis tag)
# T1 sequence (O00255 with tags, fused parts or gaps T541A): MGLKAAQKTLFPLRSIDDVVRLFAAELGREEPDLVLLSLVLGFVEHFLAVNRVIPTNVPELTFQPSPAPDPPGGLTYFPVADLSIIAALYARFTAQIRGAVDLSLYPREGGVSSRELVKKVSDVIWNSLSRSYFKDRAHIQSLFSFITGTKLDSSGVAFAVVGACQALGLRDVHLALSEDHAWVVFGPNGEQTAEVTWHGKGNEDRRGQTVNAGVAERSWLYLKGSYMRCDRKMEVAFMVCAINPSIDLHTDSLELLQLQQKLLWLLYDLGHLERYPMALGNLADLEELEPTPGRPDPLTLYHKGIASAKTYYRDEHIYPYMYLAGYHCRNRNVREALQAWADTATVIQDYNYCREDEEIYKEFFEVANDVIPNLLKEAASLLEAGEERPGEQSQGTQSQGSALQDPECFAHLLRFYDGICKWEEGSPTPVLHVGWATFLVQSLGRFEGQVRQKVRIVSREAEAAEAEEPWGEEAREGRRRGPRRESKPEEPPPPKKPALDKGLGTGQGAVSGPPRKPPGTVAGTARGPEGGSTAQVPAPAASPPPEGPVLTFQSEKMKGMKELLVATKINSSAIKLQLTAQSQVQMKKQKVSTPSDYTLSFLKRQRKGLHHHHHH
# Summary of the method: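 Tb-cryptate menin (1-610, 6xHis) 200 pM + cmpd, 30 min RT; + FITC-MBM1 75 nM, 15 min RT. 40 mM Tris pH 7.5, 50 mM NaCl, 1 mM DTT, 0.05% Pluronic F-127, 0.5% DMSO. HTRF 520/490; 11-pt 4-fold from 10 μM; IC50 fit.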
# [2] = system: MOLM14 cells; experiment: Proliferation assay, spheroid-like growth, MOLM14 (MLL-AF9 rearranged); format: cell-based, human; conditions: 8 days, confluence as measure of spheroid size, read-out: spheroid assay_OneTime MOLM14 IC50
# Summary of the method: (§1)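 200 MOLM14 or 300 KO-52 cells/well, ultra-low attachment, compound dilutions, DMSO 0.3%; 8 d, 37 °C, 5% CO2. Read: live-cell imaging confluence (spheroid size) day 8. Absolute IC50, min 0%/max 100% fixed, variable slope.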
# [3] = system: KO-52 cells; experiment: Proliferation assay, spheroid-like growth, KO-52 (MLL wildtype control cell line); format: cell-based, human; conditions: Homo sapiens, 192 h, KO-52 control cells, 8 days, confluence as measure of spheroid size; read-out: spheroid assay_OneTime KO-52 IC50
# Summary of the method: as §1
IC50 [1] [nM],"IC50 ([2]; Homo sapiens, MOLM-14, 192 h) [nM]",IC50 [2] [nM],Structure (SMILES),IC50 [3] [µM]
0.1,2,,"CO[C@H]1[C@@H]2CN([C@H]3C[C@@H]([C@@H](C(C)C)N4CC5(CCN(c6ncnnc6Oc6ccc(F)cc6-c6cncnc6C6CC6)C5)C4)C3)C[C@@H]21 (single isomer, unassigned) [Compound 233]",0.84
3,> 940,,"CS(=O)(=O)C1CCN([C@H]2C[C@@H]([C@@H](N3CC4(CCN(c5ncnnc5Oc5ccc(F)cc5-c5cncnc5C5CC5)C4)C3)C34CC(C3)C4)C2)CC1 (single isomer, unassigned) [Compound 341]",> 15
0.1,6,,"CO[C@@H]1CCN([C@H]2C[C@@H]([C@H](C(C)C)N3CC4(CCN(c5ncnnc5Oc5ccc(F)cc5-c5nnccc5C5CC5)C4)C3)C2)C1 (single isomer, unassigned) [Compound 257]",> 15
0.8,82,,COC1(C)CCN([C@H]2C[C@H]([C@H](C(C)C)N3CC4(CCN(c5ncnnc5Oc5ccc(F)cc5-c5nnccc5C5CC5)C4)C3)C2)C1 (mixture of isomers) [Compound 276],> 15

# The remaining lines, values behind:
Structure (SMILES),IC50 [1] [nM],"IC50 ([2]; Homo sapiens, MOLM-14, 192 h) [nM]",IC50 [2] [nM],IC50 [3] [µM]
"CC(C)[C@H]([C@H]1C[C@H](N2C[C@H]3COC[C@H]3C2)C1)N1CC2(CCN(c3ncnnc3Oc3ccc(F)cc3-c3ncccc3C3CC3)C2)C1 (single isomer, unassigned) [Compound 150]",0.1,120,,3.14
"CC(C)[C@H]([C@H]1C[C@@H](N2CCN(C(=O)N(C)C)CC2)C1)N1CC2(CCN(c3ncnnc3Oc3ccc(F)cc3-c3cncnc3C3CC3)C2)C1 (single isomer, unassigned) [Compound 36]",0.2,10,,3.05
"CC(C)[C@@H]([C@H]1C[C@@H](N2C[C@H]3COC[C@H]3C2)C1)N1CC2(CCN(c3ncnnc3Oc3ccc(F)cc3-c3ncncc3C3CC3)C2)C1 (single isomer, unassigned) [Compound 97]",0.1,3,,0.31
"CC(=O)N[C@H]1C[C@@H]([C@H](C(C)C)N2CC3(CCN(c4ncnnc4Oc4ccc(F)cc4-c4ncncc4C4CC4)C3)C2)C1 (single isomer, unassigned) [Compound 181]",96.9,> 940,,> 15
"CC(=O)N1CCC2CN([C@H]3C[C@@H]([C@@H](C(C)C)N4CC5(CCN(c6ncnnc6Oc6ccc(F)cc6-c6cncnc6C6CC6)C5)C4)C3)CC21 (single isomer, unassigned) [Compound 57]",0.1,,8,7.54
